Results as given in patent publication US12122785B2, “Substituted pyridines, pyridazines, pyrimidines, and 1,2,4-triazines as TYK2 inhibitors” (Sudo Biosciences Limited, priority 2021, dated 2024).

Tests used:
JAK2 kinase domain (JH1) = target: T1, JAK2 kinase domain (JH1) (Homo sapiens, UniProt O60674); assay: HTRF-based selectivity assay, JAK2 catalytic domain; type: biochemical; conditions: 14.7 μM ATP
T1 construct: recombinant purified His or GST-tagged catalytic domain for each enzyme; made in house
T1 sequence (O60674 849-1124 limits assumed): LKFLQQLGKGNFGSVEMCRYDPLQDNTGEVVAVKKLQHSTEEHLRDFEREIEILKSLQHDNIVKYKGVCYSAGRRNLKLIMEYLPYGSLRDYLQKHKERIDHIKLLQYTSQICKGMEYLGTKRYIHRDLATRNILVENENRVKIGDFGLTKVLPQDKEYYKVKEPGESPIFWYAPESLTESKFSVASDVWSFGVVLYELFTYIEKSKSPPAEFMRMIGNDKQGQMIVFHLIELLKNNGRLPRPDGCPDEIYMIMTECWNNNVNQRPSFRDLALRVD
Method: (§1) Example B-2: HTRF-Based Selectivity Assay
(§2) The ability of compounds to inhibit the activity of JAK1, JAK2, JAK3 and TYK2 is measured using a recombinant purified His or GST-tagged catalytic domain for each enzyme (JAK1, JAK2 and TYK2 are generated in-house; JAK3 was purchased from Carna biosciences, Cat #08-046) in an HTRF format biochemical assay. The reactions employs a commercial peptide substrate from Cisbio (Cat #62TK0PEC). The basic assay protocol is as follows: first, 2.5 μL of diluted compounds (4×) in DMSO are dispensed into a 384-well Optiplate. Next, 2.5 μL of enzyme (final concentrations for enzymes are: TYK2—700 ng/mL, JAK1—80.6 ng/mL, JAK2—2.1 ng/mL and JAK3—171.8 ng/mL) is added and incubated at RT for 5-20 min. Finally, 5 μl of mixture of 2×ATP [Final concentration 20 μM for TYK2, 21.43 μM for JAK1, 14.7 μM for JAK2 and 2.12 μM for JAK3]+2× Substrate [Final concentration 217 nM for TYK2, 454.7 nM for JAK1, 200 nM for JAK2 and 257.4 nM for JAK3] is added to 384 well Optiplate. Composition of Kinase assay buffer used in the assay is as follows: HEPES 50 mM, EGTA 1 mM, MgCl2 10 mM, DTT 2 mM, Tween-20 0.01% and water. Then the plates are shaken and then incubated at 26.5° C. for 60 min.

JAK3 kinase domain (JH1) = target: T2, JAK3 kinase domain (JH1) (Homo sapiens, UniProt P52333); assay: HTRF-based selectivity assay, JAK3 catalytic domain; type: biochemical; conditions: 2.12 μM ATP
T2 construct: recombinant purified His or GST-tagged catalytic domain for each enzyme; purchased Carna biosciences 08-046
T2 sequence (P52333 822-1111 limits assumed): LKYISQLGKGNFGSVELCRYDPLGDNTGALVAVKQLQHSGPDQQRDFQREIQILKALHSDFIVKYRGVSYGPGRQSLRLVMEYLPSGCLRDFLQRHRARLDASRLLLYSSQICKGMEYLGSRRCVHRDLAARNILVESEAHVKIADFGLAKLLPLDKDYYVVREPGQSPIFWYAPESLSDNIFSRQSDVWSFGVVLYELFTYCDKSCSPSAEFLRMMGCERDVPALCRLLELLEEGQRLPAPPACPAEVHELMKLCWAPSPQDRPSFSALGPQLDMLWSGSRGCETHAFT
Method: as §1, §2

[1] = tested on: TYK2 pseudokinase (JH2); IL-23-stimulated HEK-Blue IL-23 cells; assay: HEK-Blue IL-23 reporter assay (STAT3-inducible SEAP) for profiling TYK2 pseudokinase (JH2) inhibition; type: cell-based; conditions: 10 ng/mL human recombinant IL-23, SEAP readout, read-out: IL23 (TYK2 inhibitory activity, IC50)
Method: (§3) Example B-1: HEK-Blue™ IL-23 and IFNα/β Reporter Assays for Profiling TYK2 Pseudokinase (JH2) Inhibition
(§4) HEK-Blue™ IL-23 and IFNα/β cells with a stably-integrated cytokine receptor and STAT3 or STAT1 express STAT-inducible secreted embryonic alkaline phosphatase (SEAP) reporter gene upon cytokine stimulation. These cells are plated in DMEM (Gibco) containing 10% heat-inactivated FBS (Gibco) and 100 U/mL PenStrep (Gibco) at 37° C. under 5% CO2 conditions for 20-22 hours. The cells are then pretreated with serially diluted test compounds for 60 min prior to stimulation with either 10 ng/mL human recombinant IL-23 (Miltenyl Biotech) or 1 ng/mL human recombinant IFNα (InvivoGen) for 22-24 hours for IL-23 or 16-18 h for IFNα. SEAP induction is measured using the QUANTI Blue™ Solution (InvivoGen) according to the manufacturer's instructions.

[2] = tested on: TYK2 pseudokinase (JH2); IFNα-stimulated HEK-Blue IFNα/β cells; assay: HEK-Blue IFNα/β reporter assay (STAT1-inducible SEAP) for profiling TYK2 pseudokinase (JH2) inhibition; type: cell-based; conditions: 1 ng/mL human recombinant IFNα, SEAP readout, read-out: IFNα (TYK2 inhibitory activity, IC50)
Method: as §3, §4

JAK1 kinase domain (JH1) = target: T3, JAK1 kinase domain (JH1) (Homo sapiens, UniProt P23458); assay: HTRF-based selectivity assay, JAK1 catalytic domain; type: biochemical; conditions: 21.43 μM ATP, read-out: JAK-JHI (IC50)
T3 construct: recombinant purified His or GST-tagged catalytic domain for each enzyme; made in house
T3 sequence (P23458 875-1153 limits assumed): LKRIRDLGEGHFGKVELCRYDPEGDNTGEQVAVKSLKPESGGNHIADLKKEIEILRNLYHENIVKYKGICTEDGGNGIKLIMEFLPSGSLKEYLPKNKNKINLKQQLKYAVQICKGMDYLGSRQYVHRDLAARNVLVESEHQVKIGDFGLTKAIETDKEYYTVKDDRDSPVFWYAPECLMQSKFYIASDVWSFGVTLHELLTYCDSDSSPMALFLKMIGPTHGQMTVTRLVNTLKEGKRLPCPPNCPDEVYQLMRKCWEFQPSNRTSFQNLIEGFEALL
Method: as §1, §2

TYK2 kinase domain (JH1) = target: T4, TYK2 kinase domain (JH1) (Homo sapiens, UniProt P29597); assay: HTRF-based selectivity assay, TYK2 catalytic domain; type: biochemical; conditions: 20 μM ATP
T4 construct: recombinant purified His or GST-tagged catalytic domain for each enzyme; made in house
T4 sequence (P29597 897-1176 limits assumed): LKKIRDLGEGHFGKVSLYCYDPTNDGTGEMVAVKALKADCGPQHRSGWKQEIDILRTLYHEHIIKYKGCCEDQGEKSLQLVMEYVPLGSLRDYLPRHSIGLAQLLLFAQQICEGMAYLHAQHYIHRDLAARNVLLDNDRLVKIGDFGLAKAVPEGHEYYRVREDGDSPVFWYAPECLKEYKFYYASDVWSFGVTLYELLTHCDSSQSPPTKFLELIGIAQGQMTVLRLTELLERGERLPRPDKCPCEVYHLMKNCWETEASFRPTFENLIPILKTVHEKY
Method: as §1, §2

[3] = tested on: IL-2-stimulated HEK-Blue IL-2 reporter cells; assay: HEK-Blue IL-2 reporter assay (STAT5-inducible SEAP) for determining selectivity; type: cell-based; conditions: 4 ng/mL human recombinant IL-2, 24 hours
Method: (§5) Example B-3: HEK-Blue™ IL-2 and IFNγ Reporter Assays for Determining Selectivity
(§6) HEK-Blue™ IL-2 and IFNγ reporter cells with a stably-integrated cytokine receptor and STAT5 or STAT1 express STAT-inducible secreted embryonic alkaline phosphatase (SEAP) reporter gene upon cytokine stimulation. These cells were plated in DMEM (Gibco) containing 10% heat-inactivated FBS (Gibco) and 100 U/mL PenStrep (Gibco) at 37° C. under 5% CO2 conditions for 20-22 hours. The cells were then pretreated with serially diluted test compounds for 60 min prior to stimulation with either 4 ng/mL human recombinant IL-2 (Miltenyl Biotech) or 50 ng/mL human recombinant IFNγ (InvivoGen) for 24 hours. SEAP induction was measured using the QUANTI-Blue™ Solution (InvivoGen) according to the manufacturer's instructions.

[4] = tested on: IFNγ-stimulated HEK-Blue IFNγ reporter cells; assay: HEK-Blue IFNγ reporter assay (STAT1-inducible SEAP) for determining selectivity; type: cell-based; conditions: 50 ng/mL human recombinant IFNγ, 24 hours, read-out: IFN-γ SEAP selectivity assay IC50
Method: as §5, §6

Compound	IC50 (JAK2 kinase domain (JH1))	IC50 (JAK3 kinase domain (JH1))	IC50 [1]	IC50 [2]	IC50 (JAK1 kinase domain (JH1))	IC50 (TYK2 kinase domain (JH1))	IC50 [3]	IC50 [4]
[2H]C([2H])([2H])NC(=O)c1cnc(NC(=O)C2CC2)cc1Nc1cccc2c1N(C)[C@@H](C)c1cn(C)nc1-2 (single isomer, unassigned) [Compound 30]	> 1 µM	> 1 µM	< 0.03 µM	< 0.03 µM	> 1 µM	> 1 µM		
[2H]C([2H])([2H])NC(=O)c1cnc(NC(=O)[C@H]2C[C@H]2F)cc1Nc1cccc2c1N(C)Cc1cn(C)nc1-2 (single isomer, unassigned) [Compound 32]	> 1 µM	> 1 µM	< 0.03 µM	< 0.03 µM	> 1 µM	> 1 µM	> 1 µM	
[2H]C([2H])([2H])NC(=O)c1nnc(NC(=O)C2CC2)cc1Nc1nccc2c1N(C)[C@H](C)c1cn(C)nc1-2 (single isomer, unassigned) [Compound 70]	0.03 to 0.3 µM	0.3 to 1 µM	< 0.03 µM	< 0.03 µM	> 1 µM	> 1 µM	> 1 µM	
CNC(=O)c1nnc(Nc2ccc(F)cn2)cc1Nc1cccc2c1OCc1cn(C)nc1-2 [Compound 1, 6-((5-fluoropyridin-2-yl)amino)-N-methyl-4-((2-methyl-2,4-dihydrochromeno[4,3-c]pyrazol-6-yl)amino)pyridazine-3-carboxamide]	> 1 µM	> 1 µM	0.03 to 0.3 µM	0.03 to 0.3 µM	> 1 µM	0.3 to 1 µM	0.3 to 1 µM	0.3 to 1 µM
CNC(=O)c1nnc(NC(=O)C2CC2)cc1Nc1cccc2c1OCc1cn(C)nc1-2 [Compound 2, 6-(cyclopropanecarboxamido)-N-methyl-4-((2-methyl-2,4-dihydrochromeno [4,3-c]pyrazol-6-yl)amino)pyridazine-3-carboxamide]	> 1 µM	> 1 µM	0.03 to 0.3 µM	0.3 to 1 µM	> 1 µM	> 1 µM	> 1 µM	0.3 to 1 µM
[2H]C([2H])([2H])NC(=O)c1nnc(Nc2ccc(F)cn2)cc1Nc1cccc2c1OCc1cn(C)nc1-2 [Compound 5, 6-((5-fluoropyridin-2-yl)amino)-N-(methyl-d3)-4-((2-methyl-2,4-dihydrochromeno[4,3-c]pyrazol-6-yl)amino)pyridazine-3-carboxamide]	> 1 µM	> 1 µM	< 0.03 µM	0.03 to 0.3 µM	> 1 µM	> 1 µM	> 1 µM	> 1 µM
[2H]C([2H])([2H])NC(=O)c1nnc(NC(=O)C2CC2)cc1Nc1cccc2c1N(C([2H])([2H])[2H])Cc1cn(C)nc1-2 [Compound 28, 6-(cyclopropanecarboxamido)-N-(methyl-d3)-4-((2-methyl-5-(methyl-d3)-4,5-dihydro-2H-pyrazolo[4,3-c]quinolin-6-yl)amino)pyridazine-3-carboxamide]	> 1 µM	> 1 µM	< 0.03 µM	< 0.03 µM	> 1 µM		0.3 to 1 µM	0.03 to 0.3 µM
[2H]C([2H])([2H])NC(=O)c1cnc(NC(=O)C2CC2)cc1Nc1cccc2c1N(C)Cc1cn(C3COC3)nc1-2 [Compound 29, 6-(cyclopropanecarboxamido)-N-(methyl-d3)-4-((5-methyl-2-(oxetan-3-yl)-4,5-dihydro-2H-pyrazolo[4,3-c]quinolin-6-yl)amino)nicotinamide]	> 1 µM		< 0.03 µM	< 0.03 µM	> 1 µM	> 1 µM	> 1 µM	> 1 µM
[2H]C([2H])([2H])NC(=O)c1cnc(NC(=O)C2CC2)cc1Nc1cccc2c1N(C)C([2H])([2H])c1cn(C)nc1-2 [Compound 35, 6-(cyclopropanecarboxamido)-4-((2,5-dimethyl-4,5-dihydro-2H-pyrazolo[4,3-c]quinolin-6-yl-4,4-d2)amino)-N-(methyl-d3)nicotinamide]	> 1 µM	> 1 µM	< 0.03 µM	< 0.03 µM	> 1 µM	> 1 µM	> 1 µM	
[2H]C([2H])([2H])NC(=O)c1cnc(NC(=O)C2CC2)cc1Nc1nccc2c1N(C)Cc1cn(C)nc1-2 [Compound 64, 6-(cyclopropanecarboxamido)-4-((2,5-dimethyl-4,5-dihydro-2H-pyrazolo[4,3-c][1,7]naphthyridin-6-yl)amino)-N-(methyl-d3)nicotinamide]	> 1 µM		< 0.03 µM	< 0.03 µM	> 1 µM	> 1 µM	> 1 µM	0.3 to 1 µM
[2H]C([2H])([2H])NC(=O)c1nnc(NC(=O)C2CC2)cc1Nc1nccc2c1N(C)Cc1cc(C)nn1-2 [Compound 68, 6-(cyclopropanecarboxamido)-4-((2,5-dimethyl-4,5-dihydropyrazolo[1,5-a]pyrido[3,4-e]pyrazin-6-yl)amino)-N-(methyl-d3)pyridazine-3-carboxamide]	> 1 µM	> 1 µM	< 0.03 µM	< 0.03 µM	> 1 µM	> 1 µM	> 1 µM	
Cn1cc2c(n1)-c1cccc(Nc3cc(NC(=O)C4CC4)nc4[nH]n(C)c(=O)c34)c1OC2 [Compound 88, N-(2-methyl-4-((2-methyl-2,4-dihydrochromeno[4,3-c]pyrazol-6-yl)amino)-3-oxo-2,3-dihydro-1H-pyrazolo[3,4-b]pyridin-6-yl)cyclopropanecarboxamide]	> 1 µM	> 1 µM	0.3 to 1 µM	> 1 µM		> 1 µM	> 1 µM	> 1 µM
CN1Cc2cn(C)nc2-c2cccc(Nc3cc(NC(=O)C4CC4)nc4[nH]n(C)c(=O)c34)c21 [Compound 89, N-(4-((2,5-dimethyl-4,5-dihydro-2H-pyrazolo[4,3-c]quinolin-6-yl)amino)-2-methyl-3-oxo-2,3-dihydro-1H-pyrazolo[3,4-b]pyridin-6-yl)cyclopropanecarboxamide]	> 1 µM	> 1 µM	< 0.03 µM	0.03 to 0.3 µM		> 1 µM	> 1 µM	> 1 µM
